# Measured values from US20160367623A1, “AGONISTS OF GUANYLATE CYCLASE USEFUL FOR THE TREATMENT OF GASTROINTESTINAL DISORDERS, INFLAMMATION, CANCER AND OTHER DISORDERS” (priority 2015, published 2016).
# Bridge positions count the residues as written; N and C are the ends. Ends that are not written are not given here.
# System: patients with chronic idiopathic constipation (CIC)
# Assay: Second phase 3 CIC trial: change from baseline in CSBMs/week
# Assay type: in vivo, human
# Conditions: MRA
# [1] = Week 8, 6 mg, ITT Population-Excluding Duplicate Patients
# [2] = Week 9, 3 mg, ITT Population-Excluding Duplicate Patients
# [3] = Week 9, 6 mg, ITT Population-Excluding Duplicate Patients
# [4] = Week 10, 3 mg, ITT Population-Excluding Duplicate Patients
# [5] = Week 10, 6 mg, ITT Population-Excluding Duplicate Patients
# [6] = Week 11, 3 mg, ITT Population-Excluding Duplicate Patients
# [7] = Week 11, 6 mg, ITT Population-Excluding Duplicate Patients
# [8] = Week 12, 3 mg, ITT Population-Excluding Duplicate Patients
# [9] = Week 12, 6 mg, ITT Population-Excluding Duplicate Patients
# [10] = overall average estimate across the 12-week treatment period, 3 mg, ITT Population
# [11] = overall average estimate across the 12-week treatment period, 3 mg, ITT Population-Excluding Duplicate Patients
# [12] = overall average estimate across the 12-week treatment period, 6 mg, ITT Population
# [13] = overall average estimate across the 12-week treatment period, 6 mg, ITT Population-Excluding Duplicate Patients
substance,measurement,setting,value
"Asn^1-Asp^2-Glu^3-Cys^4-Glu^5-Leu^6-Cys^7-Val^8-Asn^9-Val^10-Ala^11-Cys^12-Thr^13-Gly^14-Cys^15-Leu^16 (NDECELCVNVACTGCL; disulfide 4-12, 7-15) [Plecanatide, uroguanylin analogue, guanylate cyclase-C agonist; (C4:C12, C7:C15) bicycle peptide]","Change from Baseline in CSBMs, Mean (SD)","Week 8, 6 mg, ITT Population",2.36 (3.243) CSBMs/week
same,"Change from Baseline in CSBMs, Difference from Placebo",[1],0.85 CSBMs/week
same,"Change from Baseline in CSBMs, LS Mean (SE)",[1],2.35 (0.155) CSBMs/week
same,"Change from Baseline in CSBMs, Mean (SD)",[1],2.37 (3.250) CSBMs/week
same,"Change from Baseline in CSBMs, Mean (SD)","Week 8, Active Combined, ITT Population-Excluding Duplicate Patients",2.52 (3.510) CSBMs/week
same,"Change from Baseline in CSBMs, Mean (SD)","Week 8, Active Combined, ITT Population",2.51 (3.498) CSBMs/week
same,"Change from Baseline in CSBMs, Difference from Placebo","Week 9, 3 mg, ITT Population",0.94 CSBMs/week
same,"Change from Baseline in CSBMs, LS Mean (SE)","Week 9, 3 mg, ITT Population",2.49 (0.156) CSBMs/week
same,"Change from Baseline in CSBMs, Mean (SD)","Week 9, 3 mg, ITT Population",2.59 (3.459) CSBMs/week
same,"Change from Baseline in CSBMs, Difference from Placebo",[2],0.95 CSBMs/week
same,"Change from Baseline in CSBMs, LS Mean (SE)",[2],2.53 (0.159) CSBMs/week
same,"Change from Baseline in CSBMs, Mean (SD)",[2],2.62 (3.479) CSBMs/week
same,"Change from Baseline in CSBMs, Difference from Placebo","Week 9, 6 mg, ITT Population",0.81 CSBMs/week
same,"Change from Baseline in CSBMs, LS Mean (SE)","Week 9, 6 mg, ITT Population",2.37 (0.154) CSBMs/week
same,"Change from Baseline in CSBMs, Mean (SD)","Week 9, 6 mg, ITT Population",2.38 (3.176) CSBMs/week
same,"Change from Baseline in CSBMs, Difference from Placebo",[3],0.81 CSBMs/week
same,"Change from Baseline in CSBMs, LS Mean (SE)",[3],2.39 (0.156) CSBMs/week
same,"Change from Baseline in CSBMs, Mean (SD)",[3],2.39 (3.184) CSBMs/week
same,"Change from Baseline in CSBMs, Mean (SD)","Week 9, Active Combined, ITT Population-Excluding Duplicate Patients",2.50 (3.329) CSBMs/week
same,"Change from Baseline in CSBMs, Mean (SD)","Week 9, Active Combined, ITT Population",2.48 (3.316) CSBMs/week
same,"Change from Baseline in CSBMs, Difference from Placebo","Week 10, 3 mg, ITT Population",0.85 CSBMs/week
same,"Change from Baseline in CSBMs, LS Mean (SE)","Week 10, 3 mg, ITT Population",2.49 (0.156) CSBMs/week
same,"Change from Baseline in CSBMs, Mean (SD)","Week 10, 3 mg, ITT Population",2.63 (3.617) CSBMs/week
same,"Change from Baseline in CSBMs, Difference from Placebo",[4],0.87 CSBMs/week
same,"Change from Baseline in CSBMs, LS Mean (SE)",[4],2.52 (0.159) CSBMs/week
same,"Change from Baseline in CSBMs, Mean (SD)",[4],2.65 (3.637) CSBMs/week
same,"Change from Baseline in CSBMs, Difference from Placebo","Week 10, 6 mg, ITT Population",0.86 CSBMs/week
same,"Change from Baseline in CSBMs, LS Mean (SE)","Week 10, 6 mg, ITT Population",2.50 (0.154) CSBMs/week
same,"Change from Baseline in CSBMs, Mean (SD)","Week 10, 6 mg, ITT Population",2.51 (3.288) CSBMs/week
same,"Change from Baseline in CSBMs, Difference from Placebo",[5],0.87 CSBMs/week
same,"Change from Baseline in CSBMs, LS Mean (SE)",[5],2.52 (0.156) CSBMs/week
same,"Change from Baseline in CSBMs, Mean (SD)",[5],2.51 (3.288) CSBMs/week
same,"Change from Baseline in CSBMs, Mean (SD)","Week 10, Active Combined, ITT Population-Excluding Duplicate Patients",2.58 (3.458) CSBMs/week
same,"Change from Baseline in CSBMs, Mean (SD)","Week 10, Active Combined, ITT Population",2.57 (3.449) CSBMs/week
same,"Change from Baseline in CSBMs, Difference from Placebo","Week 11, 3 mg, ITT Population",0.96 CSBMs/week
same,"Change from Baseline in CSBMs, LS Mean (SE)","Week 11, 3 mg, ITT Population",2.56 (0.157) CSBMs/week
same,"Change from Baseline in CSBMs, Mean (SD)","Week 11, 3 mg, ITT Population",2.71 (3.710) CSBMs/week
same,"Change from Baseline in CSBMs, Difference from Placebo",[6],0.99 CSBMs/week
same,"Change from Baseline in CSBMs, LS Mean (SE)",[6],2.61 (0.159) CSBMs/week
same,"Change from Baseline in CSBMs, Mean (SD)",[6],2.75 (3.728) CSBMs/week
same,"Change from Baseline in CSBMs, Difference from Placebo","Week 11, 6 mg, ITT Population",0.80 CSBMs/week
same,"Change from Baseline in CSBMs, LS Mean (SE)","Week 11, 6 mg, ITT Population",2.40 (0.155) CSBMs/week
same,"Change from Baseline in CSBMs, Mean (SD)","Week 11, 6 mg, ITT Population",2.44 (3.276) CSBMs/week
same,"Change from Baseline in CSBMs, Difference from Placebo",[7],0.79 CSBMs/week
same,"Change from Baseline in CSBMs, LS Mean (SE)",[7],2.41 (0.156) CSBMs/week
same,"Change from Baseline in CSBMs, Mean (SD)",[7],2.43 (3.266) CSBMs/week
same,"Change from Baseline in CSBMs, Mean (SD)","Week 11, Active Combined, ITT Population-Excluding Duplicate Patients",2.58 (3.498) CSBMs/week
same,"Change from Baseline in CSBMs, Mean (SD)","Week 11, Active Combined, ITT Population",2.57 (3.493) CSBMs/week
same,"Change from Baseline in CSBMs, Difference from Placebo","Week 12, 3 mg, ITT Population",0.94 CSBMs/week
same,"Change from Baseline in CSBMs, LS Mean (SE)","Week 12, 3 mg, ITT Population",2.60 (0.157) CSBMs/week
same,"Change from Baseline in CSBMs, Mean (SD)","Week 12, 3 mg, ITT Population",2.76 (3.785) CSBMs/week
same,"Change from Baseline in CSBMs, Difference from Placebo",[8],0.97 CSBMs/week
same,"Change from Baseline in CSBMs, LS Mean (SE)",[8],2.64 (0.159) CSBMs/week
same,"Change from Baseline in CSBMs, Mean (SD)",[8],2.78 (3.803) CSBMs/week
same,"Change from Baseline in CSBMs, Difference from Placebo","Week 12, 6 mg, ITT Population",0.86 CSBMs/week
same,"Change from Baseline in CSBMs, LS Mean (SE)","Week 12, 6 mg, ITT Population",2.51 (0.155) CSBMs/week
same,"Change from Baseline in CSBMs, Mean (SD)","Week 12, 6 mg, ITT Population",2.57 (3.409) CSBMs/week
same,"Change from Baseline in CSBMs, Difference from Placebo",[9],0.84 CSBMs/week
same,"Change from Baseline in CSBMs, LS Mean (SE)",[9],2.51 (0.157) CSBMs/week
same,"Change from Baseline in CSBMs, Mean (SD)",[9],2.56 (3.366) CSBMs/week
same,"Change from Baseline in CSBMs, Mean (SD)","Week 12, Active Combined, ITT Population-Excluding Duplicate Patients",2.67 (3.585) CSBMs/week
same,"Change from Baseline in CSBMs, Mean (SD)","Week 12, Active Combined, ITT Population",2.66 (3.596) CSBMs/week
same,"Change from Baseline in CSBMs, Difference from Placebo",[10],0.90 CSBMs/week
same,"Change from Baseline in CSBMs, LS Mean (SE)",[10],2.27 (0.135) CSBMs/week
same,"Change from Baseline in CSBMs, Difference from Placebo",[11],0.91 CSBMs/week
same,"Change from Baseline in CSBMs, LS Mean (SE)",[11],2.30 (0.137) CSBMs/week
same,"Change from Baseline in CSBMs, Difference from Placebo",[12],0.79 CSBMs/week
same,"Change from Baseline in CSBMs, LS Mean (SE)",[12],2.16 (0.133) CSBMs/week
same,"Change from Baseline in CSBMs, Difference from Placebo",[13],0.79 CSBMs/week
same,"Change from Baseline in CSBMs, LS Mean (SE)",[13],2.18 (0.135) CSBMs/week
